From BindingDB's records for doi:10.1016/j.bmcl.2006.02.063 (The University of Kansas, 2006) come the findings set out here.

The nature of this experiment: Inhibition of Her2 in SKBr3 cells by ELISA.

Usually IC50 stands for the midpoint of a concentration-inhibition curve. The low end stands for greater potency in that assay, the high end for weaker potency in that assay. For `O=S(=O)(Nc1ccc(Cl)cc1O)c1ccccc1`, the IC50 was determined as 31 µM. `CC1(C)CC(=O)C2C(=Nc3ccccc3NC2c2cccc(O)c2O)C1` (stereo not drawn) [3-(1-hydroxy-3,3-dimethyl-3,4,10,11-tetrahydro-2H-dibenzo[b,e][1,4]diazepin-11-yl)-benzene-1,2-diol]: the IC50 turned out to be 61 µM. Next, `COc1cc(C2CC(c3ccccc3O)N=N2)ccc1O` (stereo not drawn) [6-[5-(4-hydroxy-3-methoxyphenyl)-3-pyrazolidinylidene]-1-cyclohexa-2,4-dienone]: 18 µM.
